The source of these data is article PMC6019266 (Biochemistry, 2017).

Values after ≈ are worked out from the molar mass of the structure shown. Like-named read-outs stand apart in the source and are kept apart here.

The subject of one assay is E. coli. As to conditions: cited from earlier work.
Another assay deals with Vibrio cholerae. As to conditions: cited from earlier work.
The target of another assay is Rv0091 (Mycobacterium tuberculosis, UniProt P9WJM3). Description: Dissociation constants. It is filed as biochemical.
In assay [1] the test system is auto-inducer (AI-2) production. As to conditions: cited from earlier work.
The subject of a further assay is H. pylori (J99). Nature of the assay: Antibacterial activity assay in liquid culture. It is filed as cell-based, Helicobacter pylori.
Assay [2] concerns M. smegmatis strain mc^2155. Nature of the assay: Disc-diffusion growth inhibition assay. It is filed as cell-based, Mycobacterium smegmatis. As to conditions: 96 h, 37 °C. For orientation: Agar diffusion results depend on both activity and mobility in agar.
The subject of assay [3] is M. tuberculosis strain mc^26230. It is filed as cell-based, Mycobacterium tuberculosis. As to conditions: disc diffusion, 96 h, 37 °C.

Chain of Rv0091 (P9WJM3 whole entry, looked up): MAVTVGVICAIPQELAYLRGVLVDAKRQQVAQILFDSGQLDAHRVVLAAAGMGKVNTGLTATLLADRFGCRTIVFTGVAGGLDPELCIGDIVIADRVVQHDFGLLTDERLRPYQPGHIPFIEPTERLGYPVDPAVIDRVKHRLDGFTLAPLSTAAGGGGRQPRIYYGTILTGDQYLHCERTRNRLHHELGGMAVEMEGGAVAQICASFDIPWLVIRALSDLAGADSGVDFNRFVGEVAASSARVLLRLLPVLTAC

As for `CCCCSCC1CN(Cc2c[nH]c3c(N)ncnc23)C[C@H]1O` (stereo partly drawn) [Compound 13], the toxicity to growth entry in the assay with E. coli and in the assay with Vibrio cholerae was “not toxic” in each case. In addition, the “weaker binding than HT-DADMe-ImmA” value at Rv0091 (ratio of dissociation constants) is 15 times. In addition, in assay [1], the “effect on production of auto-inducer (AI-2)” value is “inhibited production”.

Regarding `CCCCCCSC[C@H]1CN(Cc2c[nH]c3c(N)ncnc23)C[C@@H]1O` [Compound 14], the “more potent than tetracycline” value in the assay on H. pylori (J99) came out at 6 times. Also, in the assay with H. pylori (J99) (72 h, 37 °C, OD600), the “IC50 (antibacterial activity; MIC50 in methods)” value turned out to be 0.013 ± 0.0018 µg/mL (≈ 0.0358 µM). Further, the “bound tighter than MT-DADMe-ImmA (11)” value at Rv0091 (ratio of Ki values, Table 1) is on record as 17 times. For the same molecule, the zone of clearance entry in assay [2] (1000 μg/mL) and in assay [3] (1000 μg/mL) was “small zone of clearance” each time.

Consider `CSC[C@@H]1CN(Cc2c[nH]c3c(N)ncnc23)C[C@H]1O` [Compound 20], for which, at Rv0091 (at concentrations of ≤400 μM), the “activity toward Rv0091” value was “no activity”.

On to `NC[C@H]1O[C@H](O[C@H]2[C@H](O)[C@@H](O[C@H]3O[C@H](CO)[C@@H](O)[C@H](N)[C@H]3O)[C@H](N)C[C@@H]2N)[C@H](O)[C@@H](O)[C@@H]1O` [Kanamycin, reference compound], for which the zone of clearance result in assay [2] (100 μg/mL, antibiotic control) is on record as “large zones of clearance”; in assay [3] (100 μg/mL, antibiotic control) it was “large zones of clearance”.
